Measurements reported in patent US20260250318A1, “COMPOSITIONS AND METHODS FOR CROSSING THE BLOOD BRAIN BARRIER” (VOYAGER THERAPEUTICS, INC., priority 2022, published 2026).

Assays:
brain = assay: Maturation of TTM-001 capsid, NGS enrichment in brain of CD-1 Outbred mice; type: in vivo; conditions: NGS fold-enrichment of TTM-001 matured AAV capsid variants in the brain of CD-1 Outbred mice; intravenous 1.0×10^12 VG/dose; 14 days in life; RNA; relative to non-matured TTM-001 control
Text: This Example describes maturation of the TTM-001 (SEQ ID NO: 981 (amino acid) and 983 (DNA), comprising SEQ ID NO: 941) and TTM-002 (SEQ ID NO: 982 (amino acid) and 984 (DNA), comprising SEQ ID NO: 2) capsid variants to further enhance their transduction and biodistribution in the central nervous system and evolve the AAV capsid variants to provide further cross-species compatibility. Two approaches were used to mature the TTM-001 and TTM-002 capsid sequences in order to randomize and mutate within and around the peptide insert comprised within loop IV of the capsid variant. […] In the first maturation approach, sets of three contiguous amino acids were randomized across the mutagenesis region in the TTM-001 and TTM-002 sequences, which spanned from position 450 to position 466, numbered according to SEQ ID NO: 981 and 982. In the second maturation approach, mutagenic primers were used to introduce point mutations at a low frequency, scattered across the mutagenesis region in the TTM-001 and TTM-002 sequences ranging from position 449 to position 466, numbered according to SEQ ID NO: 981 and 982. AAV capsid variants arising from each maturation approach for TTM-001 were pooled together and AAV capsid variants arising from each maturation approach for TTM-002 were also pooled together, for subsequent testing and characterization in mice.
The library of pooled matured AAV capsid variants generated from TTM-001 or library of pooled matured AAV capsid variants generated from the TTM-002 matured AAV capsid variant each were intravenously injected into the tail vein of three female CD-1 Outbred mice (Charles River) at a dose of 1.0×10^12 VG/dose. After 14-days in life, the brains of the mice were isolated and RNA was extracted. Following RNA recovery and RT-PCR amplification, a systematic NGS enrichment analysis was performed to calculate the fold enrichment ratio relative to the corresponding TTM-001 or TTM-002 control, and the peptides comprised within the variants were identified. The data for the TTM-001 matured capsid variants is provided in Table 13 and the data for the TTM-002 matured capsid variants is provided in Table 14.

[1] = tested on: brains, heart, liver, muscle, and DRG of the NHPs; assay: Maturation of TTM-001 and TTM-002 capsids, NGS enrichment in NHP tissues; type: in vivo
Text: This Example describes maturation of the AAV9 capsid variants, TTM-001 (SEQ ID NO: 981 (amino acid) and 983 (DNA), comprising SEQ ID NO: 941 (encoded by SEQ ID NO: 942)) and TTM-002 (SEQ ID NO: 982 (amino acid) and 984 (DNA), comprising SEQ ID NO: […] (encoded by SEQ ID NO: 944)) in NHPs to further enhance their transduction and biodistribution in the central nervous system as well as other tissues, and evolve the AAV capsid variants to provide further cross-species compatibility. Two approaches were used to mature the TTM-001 and TTM-002 capsid sequences in order to randomize and mutate within and around the peptide insert comprised within loop IV of the capsid variant. […] In the first maturation approach, sets of three contiguous amino acids were randomized across the mutagenesis region in the TTM-001 and TTM-002 sequences, which spanned from position 450 to position 466, numbered according to SEQ ID NO: 981 and 982. In the second maturation approach, mutagenic primers were used to introduce point mutations at a low frequency, scattered across the mutagenesis region in the TTM-001 and TTM-002 sequences ranging from position 449 to position 466, numbered according to SEQ ID NO: 981 and 982. AAV capsid variants arising from each maturation approach for TTM-001 and TTM-002 were pooled together, for subsequent testing and characterization in NHPs.
The library of pooled matured AAV capsid variants generated using the first maturation approach and the second maturation approach for the TTM-001 and TTM-002 AAV capsid variants were injected into two NHPs. […] Following RNA recovery and RT-PCR amplification, a systematic NGS enrichment analysis was performed to calculate the fold enrichment ratio relative to an AAV9 control, and the peptides comprised within the variants were identified.
Following the RNA recovery and NGS analysis from the second maturation approach, approximately 680,000 capsid variants were identified. The 680,000 matured capsid variants were then filtered based on samples with a raw virus count greater than 10 and a coefficient of variance (CV) of less than 1, which was calculated for each peptide across the brain samples taken from the two NHPs. […] Using this filtering criteria, this led to approximately 64,000 matured capsid variants.

[2] = NGS fold-enrichment, DRG, NHP, relative to AAV9
[3] = NGS fold-enrichment, brain, NHP, relative to AAV9
[4] = NGS fold-enrichment, heart, NHP, relative to AAV9
[5] = NGS fold-enrichment, liver DNA, NHP, relative to AAV9
[6] = NGS fold-enrichment, liver RNA, NHP, relative to AAV9
[7] = NGS fold-enrichment, muscle, NHP, relative to AAV9
[8] = NHP DRG, NGS, relative to AAV9 control
[9] = NHP brain, NGS, relative to AAV9 control
[10] = NHP heart, NGS, relative to AAV9 control
[11] = NHP liver DNA, NGS, relative to AAV9 control
[12] = NHP liver RNA, NGS, TTM-001 and TTM-002 matured AAV capsid variants, relative to AAV9 control
[13] = NHP muscle, NGS, relative to AAV9 control

## KTINGFRSPHLKAQNQQT
brain
  Fold enrichment over TTM-001: 2.063 fold

## KTINGFRSPHSKAQNQQT
brain
  Fold enrichment over TTM-001: 2.333 fold

## KTINGFSSPHRKAQNQQT
brain
  Fold enrichment over TTM-001: 2.276 fold

## KTINGHLSPHRKAQNQQT
brain
  Fold enrichment over TTM-001: 2.851 fold

## KTINGHRSPHLKAQNQQT
brain
  Fold enrichment over TTM-001: 2.320 fold

## KTINGHSSPHRKAQNQQT
brain
  Fold enrichment over TTM-001: 2.639 fold

## KTINGIASPHRKAQNQQT
brain
  Fold enrichment over TTM-001: 2.099 fold

## KTINGILSPHRKAQNQQT
brain
  Fold enrichment over TTM-001: 2.475 fold

## KTINGIRSPHTKAQNQQT
brain
  Fold enrichment over TTM-001: 2.793 fold

## KTINGKLSPHMKAQNQQT
brain
  Fold enrichment over TTM-001: 2.449 fold

## KTINGKRSPHSKAQNQQT
brain
  Fold enrichment over TTM-001: 3.611 fold

## KTINGKTSPHGKAQNQQT
brain
  Fold enrichment over TTM-001: 2.717 fold

## KTINGLASPHRKAQNQQT
brain
  Fold enrichment over TTM-001: 2.737 fold

## KTINGLFSPHRKAQNQQT
brain
  Fold enrichment over TTM-001: 2.331 fold

## KTINGLLSPHRKAQNQQT
brain
  Fold enrichment over TTM-001: 3.026 fold

## KTINGLLSPHWKAQNQQT
brain
  Fold enrichment over TTM-001: 4.173 fold

## KTINGLPSPHRKAQNQQT
brain
  Fold enrichment over TTM-001: 2.719 fold

## KTINGLRSPHRKAQNQQT
brain
  Fold enrichment over TTM-001: 3.676 fold

## KTINGLRSPHSKAQNQQT
brain
  Fold enrichment over TTM-001: 2.238 fold

## KTINGLTSPHRKAQNQQT
brain
  Fold enrichment over TTM-001: 2.663 fold

## KTTGRSGSPHSKAQNQQT
[1]; [2]
  Fold Enrichment relative to AAV9, DRG (NHP): 0.000 fold
[1]; [3]
  Fold Enrichment relative to AAV9, Brain (NHP): 0.000 fold
[1]; [4]
  Fold Enrichment relative to AAV9, Heart (NHP): 0.000 fold
[1]; [5]
  Fold Enrichment relative to AAV9, Liver DNA (NHP): 0.126 fold
[1]; [6]
  Fold Enrichment relative to AAV9, Liver RNA (NHP): 10.863 fold
[1]; [7]
  Fold Enrichment relative to AAV9, Muscle (NHP): 0.000 fold

## KTTRCSGSPHSKAQNQQT
[1]; [8]
  Fold Enrichment relative to AAV9, DRG (NHP): 0.000 fold
[1]; [9]
  Fold Enrichment relative to AAV9, Brain (NHP): 0.000 fold
[1]; [10]
  Fold Enrichment relative to AAV9, Heart (NHP): 0.000 fold
[1]; [11]
  Fold Enrichment relative to AAV9, Liver DNA (NHP): 8.168 fold
[1]; [12]
  Fold Enrichment relative to AAV9, Liver RNA (NHP): 12.639 fold
[1]; [13]
  Fold Enrichment relative to AAV9, Muscle (NHP): 0.000 fold

## KTTRKSGSPHSKAQNQQT
[1]; [8]
  Fold Enrichment relative to AAV9, DRG (NHP): 0.000 fold
[1]; [9]
  Fold Enrichment relative to AAV9, Brain (NHP): 0.000 fold
[1]; [10]
  Fold Enrichment relative to AAV9, Heart (NHP): 0.000 fold
[1]; [11]
  Fold Enrichment relative to AAV9, Liver DNA (NHP): 2.617 fold
[1]; [12]
  Fold Enrichment relative to AAV9, Liver RNA (NHP): 18.849 fold
[1]; [13]
  Fold Enrichment relative to AAV9, Muscle (NHP): 0.000 fold

## KWLTGSGSPHSKAQNQQT (peptide inserted in AAV capsid)
[1]; [8]
  Fold Enrichment relative to AAV9, DRG (NHP): 0.000 fold
[1]; [9]
  Fold Enrichment relative to AAV9, Brain (NHP): 0.364 fold
[1]; [10]
  Fold Enrichment relative to AAV9, Heart (NHP): 0.000 fold
[1]; [11]
  Fold Enrichment relative to AAV9, Liver DNA (NHP): 2.388 fold
[1]; [12]
  Fold Enrichment relative to AAV9, Liver RNA (NHP): 26.975 fold
[1]; [13]
  Fold Enrichment relative to AAV9, Muscle (NHP): 2578.486 fold

## KYIVGSGSPHSKAQNQQT (peptide inserted in AAV capsid)
[1]; [8]
  Fold Enrichment relative to AAV9, DRG (NHP): 0.000 fold
[1]; [9]
  Fold Enrichment relative to AAV9, Brain (NHP): 0.000 fold
[1]; [10]
  Fold Enrichment relative to AAV9, Heart (NHP): 0.000 fold
[1]; [11]
  Fold Enrichment relative to AAV9, Liver DNA (NHP): 4.480 fold
[1]; [12]
  Fold Enrichment relative to AAV9, Liver RNA (NHP): 94.721 fold
[1]; [13]
  Fold Enrichment relative to AAV9, Muscle (NHP): 0.000 fold

## KYSAGSGSPHSKAQNQQT (peptide inserted in AAV capsid)
[1]; [8]
  Fold Enrichment relative to AAV9, DRG (NHP): 0.000 fold
[1]; [9]
  Fold Enrichment relative to AAV9, Brain (NHP): 0.000 fold
[1]; [10]
  Fold Enrichment relative to AAV9, Heart (NHP): 0.000 fold
[1]; [11]
  Fold Enrichment relative to AAV9, Liver DNA (NHP): 1.824 fold
[1]; [12]
  Fold Enrichment relative to AAV9, Liver RNA (NHP): 41.310 fold
[1]; [13]
  Fold Enrichment relative to AAV9, Muscle (NHP): 0.000 fold

## KYSMGSGSPHSKAQNQQT (peptide inserted in AAV capsid)
[1]; [2]
  Fold Enrichment relative to AAV9, DRG (NHP): 0.000 fold
[1]; [3]
  Fold Enrichment relative to AAV9, Brain (NHP): 0.000 fold
[1]; [4]
  Fold Enrichment relative to AAV9, Heart (NHP): 0.000 fold
[1]; [5]
  Fold Enrichment relative to AAV9, Liver DNA (NHP): 1.587 fold
[1]; [6]
  Fold Enrichment relative to AAV9, Liver RNA (NHP): 10.478 fold
[1]; [7]
  Fold Enrichment relative to AAV9, Muscle (NHP): 0.000 fold

## KYVFGSGSPHSKAQNQQT (peptide inserted in AAV capsid)
[1]; [8]
  Fold Enrichment relative to AAV9, DRG (NHP): 0.000 fold
[1]; [9]
  Fold Enrichment relative to AAV9, Brain (NHP): 0.000 fold
[1]; [10]
  Fold Enrichment relative to AAV9, Heart (NHP): 0.000 fold
[1]; [11]
  Fold Enrichment relative to AAV9, Liver DNA (NHP): 2.346 fold
[1]; [12]
  Fold Enrichment relative to AAV9, Liver RNA (NHP): 22.232 fold
[1]; [13]
  Fold Enrichment relative to AAV9, Muscle (NHP): 0.000 fold

## KYYTGSGSPHSKAQNQQT (peptide inserted in AAV capsid)
[1]; [8]
  Fold Enrichment relative to AAV9, DRG (NHP): 0.000 fold
[1]; [9]
  Fold Enrichment relative to AAV9, Brain (NHP): 0.000 fold
[1]; [10]
  Fold Enrichment relative to AAV9, Heart (NHP): 0.000 fold
[1]; [11]
  Fold Enrichment relative to AAV9, Liver DNA (NHP): 1.199 fold
[1]; [12]
  Fold Enrichment relative to AAV9, Liver RNA (NHP): 38.777 fold
[1]; [13]
  Fold Enrichment relative to AAV9, Muscle (NHP): 0.000 fold
